Assay results reported in patent US10660912B2, “Combination therapy for cancer” (NuCana plc, priority 2015, dated 2020).

Experiments:
[1] = human, in vivo
Method: Intracellular concentrations were normalised to tissue protein concentrations. dFdCTP=2′,2′-difluoro-2′-deoxycytidine; PBMCs=Peripheral Blood Mononuclear Cells.
6 ml of blood was collected using heparinised blood collection tubes. After centrifugation and separation of plasma, buffycoat was collected and transferred to new test tube containing 3 ml of Lymphoprep density gradient. After centrifugation, the upper interface containing the PBMC layer was transferred to new test tube. After washing with phosphate buffered saline (PBS), PBMCs were re-suspended in 100 μl PBS. Then, another 100 μl of 0.8 M PCA was added and the mixture was vortex mixed and centrifuged followed by transfer of 100 μl supernatant to new test tube. The PCA extracts were stored at −80° C. until time of analysis.
PCA extracts were buffered using 50 μl of 1M NH4Ac, then neutralised using 20 μl of 10% ammonia solution. Finally, 5 μl containing the internal standard 8-ChloroATP and 5 μl deionised water were then added. The extracts were transferred to LC-MS vials and 10 μl were injected into the UPLC-MS/MS system.
10 mg/mL stock solution of the analyte was prepared and aliquot frozen at −80° C. until use. The analyte was resolved using an ultra-performance liquid chromatography system (Accela UPLC, Thermo Scientific, UK) equipped with a Biobasic AX, 5 μm, 50×2.1 mm column (Thermo Electron Corporation, Murrieta, Calif., USA) and a mobile phase consisting of a mixture of 10 mM NH4Ac in ACN/H2O (30:70 v/v), pH 6.0 (A), and 1 mM NH4Ac in ACN/H2O (30:70 v/v), pH 10.5 (B). The mobile phase gradient was employed, comprising: buffer A=95% at 0-0.5 min, from 95 to 0% over 1.25 minutes, held at 0% for 1.75 minute, from 0 to 95% over 0.1 minutes, ending with 95% for 2.9 minutes, all at a flow rate of 500 μl/min.
Eluting compounds of interest were detected using a triple stage quadrupole Vantage mass spectrometry system (Thermo Scientific, UK) equipped with an electrospray ion source. Samples were analyzed in the Multiple Reaction Monitoring (MRM), positive (+ve) and negative (−ve) ion modes at a spray voltage of 3500 and 3000 V, respectively. Nitrogen was used as sheath and auxiliary gases at a flow rate of 50 and 20 arbitrary units, respectively. Argon was used as collision gas with pressure of 1.5 mTorr.
The combination regimen NUC-1031 with carboplatin was administered to 10 patients with ovarian cancer as part of the Phase Ib study PRO-002.

[2] = tested on: platinum sensitive recurrent ovarian cancer; details: cited from earlier work

Structure (SMILES)	Apparent t1/2 (intracellular dFdCTP) ([1]; female)	Clearance ([1]; female)	Tmax (intracellular dFdCTP) ([1]; female)	Cmax intracellular dFdCTP levels relative to gemcitabine in combination with carboplatin [1]	intracellular dFdCTP Cmax concentrations relative to gemcitabine [1]	levels of the toxic metabolite normally associated with gemcitabine [1]	response rate ([2]; P=0.0016)	median PFS ([2]; median follow-up 17 months, carboplatin AUC5 alone or AUC4 day 1 plus gemcitabine 1000 mg/m^2 days 1 & 8 every 3 weeks)
C[C@H](NP(=O)(OC[C@H]1O[C@@H](n2ccc(N)nc2=O)C(F)(F)[C@@H]1O)Oc1ccccc1)C(=O)OCc1ccccc1 (stereo partly drawn) [NUC-1031, 2′-Deoxy-2′,2′-difluoro-D-cytidine-5′-O-[phenyl (benzoxy-L-alaninyl)] phosphate]	9.6 h	3.9 L/h	1 h	4 fold	around 10 ×	less than half	–	–
N.N.O=C([O-])C1(C(=O)[O-])CCC1.[Pt+2] [carboplatin]	–	–	–	–	–	–	30.9%	5.8 months
